The text below walks through data of PubChem BioAssay (NCI).

The structures appear in SMILES notation.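 In this assay, cells in 96-well plates receive the compound at five concentrations for 48 hours. Endpoints are linearly interpolated between the surrounding concentrations. TGI denotes the concentration required for complete inhibition of growth.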

Holding throughout (assay): growth of human tumour cells (NCI), 48 h
In test [1] the test system is U251 CNS.
Test [2] concerns HT29 colon.
The test system of test [3] is OVCAR-3 ovarian.
The subject of test [4] is SNB-75 CNS.
The subject of test [5] is SW-620 colon.
Test [6] deals with MDA-N.
The test system of test [7] is SK-MEL-2 melanoma.
For test [8], the system named is MDA-MB-231 breast.
Test [9] deals with SF-295 CNS.
For test [10], the system named is NCI/ADR-RES ovarian.
Test [11] concerns HCC-2998 colon.
Test [12] has as its system SK-MEL-28 melanoma.
Test [13] concerns RPMI-8226 leukemia.
The test system of test [14] is SNB-19 CNS.
For test [15], the system named is UACC-62 melanoma.
Test [16] concerns A549 NSCLC.
The subject of test [17] is HL-60(TB) leukemia.
For test [18], the system named is BT-549 breast.

As for `O=[N+]([O-])c1ccc2nc(/C=C(\O)c3ccccc3)c(NC34CC5CC(CC(C5)C3)C4)nc2c1`, the TGI in test [1], in test [2], in test [3], in [4], in test [5] and in [6] was over 10 µM each time. Further, the TGI in test [7], in [8], in test [9], in [10], in test [11] and in test [12] was over 10 µM each time.
For the molecule `CN1CCN(c2ccc3nc(-c4ccc5nc(CCCc6ccc(N(CCCl)CCCl)cc6)[nH]c5c4)[nH]c3c2)CC1`, the TGI in test [1], in test [13], in [2], in test [14], in [4] and in [5] was over 100 µM in each case. The TGI in test [6], in [15], in test [7], in [8], in [9] and in test [16] was over 100 µM each time. The TGI in test [10], in [11], in [17] and in [12] was over 100 µM throughout.
As for `O=C(O)c1ccc2[nH]c(=O)oc2c1`, the TGI in [1], in test [13], in test [2], in [14], in test [18] and in test [3] was over 100 µM in each case. Moreover, the TGI in [4], in test [5], in test [6], in test [15], in test [7] and in test [8] was over 100 µM in each case. The TGI in test [9], in test [10], in test [17] and in [12] was over 100 µM each time.
In the case of `CCC12CN(C(=O)OC)C3C(Br)C1CCC(=O)C32` (stereo not drawn), the TGI in test [1], in test [13], in [2], in test [14], in [3] and in test [4] was over 100 µM in each case. Moreover, the TGI in [5], in test [6], in test [15], in test [7], in [8] and in test [9] was over 100 µM each time. The TGI in [16], in test [10], in test [11], in [17] and in test [12] was over 100 µM throughout.
Consider `OCCCN=C1N=C(Cl)/C(=C\c2ccccc2)N1`, for which the TGI in [1], in [13], in test [2], in test [14], in test [4] and in test [5] was over 100 µM throughout. Moreover, the TGI in test [6], in test [8], in test [9], in test [16], in test [10] and in test [11] was over 100 µM throughout. For the same molecule, the TGI in test [17] and in test [12] was over 100 µM in each case.
As to `Nc1nc(Cl)cc(NCC2(CO)CC=CC2)n1`, the TGI in [1], in test [2], in [14], in [18], in test [3] and in test [4] was over 100 µM throughout. In addition, the TGI in [5], in [6], in [15], in test [7], in test [8] and in test [9] was over 100 µM in each case. The TGI in [16], in [10], in test [11] and in test [12] was over 100 µM in each case.
Take `COc1cccc(C=C(C#N)C#N)c1OC`: the TGI in test [1], in test [13], in [2], in test [14], in test [18] and in [3] was over 100 µM each time. Further, the TGI in test [4], in test [5], in test [6], in test [15], in test [9] and in test [16] was over 100 µM each time. The TGI in test [10], in [11], in test [17] and in [12] was over 100 µM each time.
Take `C/C=C/C(O)P(=O)(OC)OC` (stereo not drawn): the TGI in test [1] was found to be 0.872 µM; in [13], 0.514 µM; in test [2], 1.11 µM; in test [14], 1.53 µM; in test [18] it was 1.8 µM; in test [3] it was 0.783 µM. The TGI in test [4] was 1.49 µM; in test [5], 0.982 µM; in test [6] it was 0.671 µM; in test [15], 0.785 µM; in test [7] it was 1 µM; in test [8], 1.57 µM. In addition, the TGI in test [9] turned out to be 1.39 µM; in [16] it was 1.07 µM; in test [11], 0.774 µM; in test [17], 0.591 µM; in test [12], 1.36 µM.
Regarding `O=C(Cn1c2c(c3ccccc31)CCCC2)N1CCOCC1`, the TGI in [13], in test [2], in test [14], in test [18], in test [3] and in [5] was over 100 µM in each case. In addition, the TGI in test [6], in [15], in test [7], in [9], in [16] and in [10] was over 100 µM in each case. Also, the TGI in [11] and in test [17] was over 100 µM in each case.
